According to the supplement of paper PMC7214452:

Columns and labels:
Test in all cases: normalized area under the dose-response curve (viability relative to DMSO control) (fraction); higher = less sensitive (more viable cells)
Settings in all cases: exposure time not given
[1] = test system: KMS26 (cancer type: MM)
Description: (§1)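 25 myeloma and 15 non-Hodgkin lymphoma cell lines were exposed to each of 76 drugs as 7-point log dilutions (0.01 nM–10 µM) in duplicate. Viability was read with CellTiter-Glo and normalised to DMSO (0.1%) and staurosporine (10 µM) plate controls. Normalised AUC was calculated by the trapezoidal method relative to the negative control.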

[2] = test system: EJM (cancer type: MM)
Description: as §1

[3] = test system: XG2 (cancer type: MM)
Description: as §1

[4] = test system: SU-DHL2 (cancer type: DLBCL)
Description: as §1

[5] = test system: My-La (cancer type: TCL)
Description: as §1

[6] = test system: MM1.S (cancer type: MM)
Description: as §1

[7] = test system: SU-DHL6 (cancer type: DLBCL)
Description: as §1

[8] = test system: KMS28BM (cancer type: MM)
Description: as §1

[9] = test system: MM1.R (cancer type: MM)
Description: as §1

[10] = test system: AMO1 (cancer type: MM)
Description: as §1

[11] = test system: SU-DHL1 (cancer type: TCL)
Description: as §1

[12] = test system: OPM2 (cancer type: MM)
Description: as §1

[13] = test system: KMS18 (cancer type: MM)
Description: as §1

[14] = test system: JeKo-1 (cancer type: Mantle)
Description: as §1

[15] = test system: Karpas-299 (cancer type: TCL)
Description: as §1

[16] = test system: Se-Ax (cancer type: TCL)
Description: as §1

[17] = test system: OCI-LY19 (cancer type: DLBCL)
Description: as §1

[18] = test system: OCI-MY5 (cancer type: MM)
Description: as §1

[19] = test system: KMS11 (cancer type: MM)
Description: as §1

[20] = test system: JJN3 (cancer type: MM)
Description: as §1

[21] = test system: U266 (cancer type: MM)
Description: as §1

[22] = test system: FR4 (cancer type: MM)
Description: as §1

[23] = test system: KMS34 (cancer type: MM)
Description: as §1

[24] = test system: RPMI 8226 (cancer type: MM)
Description: as §1

[25] = test system: OCI-MY5/Vec (cancer type: MM)
Description: as §1

[26] = test system: Granta-519 (cancer type: Mantle)
Description: as §1

[27] = test system: NCI-H929 (cancer type: MM)
Description: as §1

[28] = test system: OCI-LY3 (cancer type: DLBCL)
Description: as §1

[29] = test system: L363 (cancer type: MM)
Description: as §1

[30] = test system: HuT 78 (cancer type: TCL)
Description: as §1

[31] = test system: LP1 (cancer type: MM)
Description: as §1

[32] = test system: OCI-LY1 (cancer type: DLBCL)
Description: as §1

[33] = test system: SKMM2 (cancer type: MM)
Description: as §1

[34] = test system: OCI-MY7 (cancer type: MM)
Description: as §1

[35] = test system: SR-786 (cancer type: TCL)
Description: as §1

[36] = test system: JVM2 (cancer type: Mantle)
Description: as §1

[37] = test system: Mino (cancer type: Mantle)
Description: as §1

[38] = test system: KMS12PE (cancer type: MM)
Description: as §1

[39] = test system: KMS28PE (cancer type: MM)
Description: as §1

[40] = test system: OCI-MY5/CRBN (cancer type: MM)
Description: as §1

Structure (SMILES) | normalized area under the dose-response curve [1] | normalized area under the dose-response curve [2] | normalized area under the dose-response curve [3] | normalized area under the dose-response curve [4] | normalized area under the dose-response curve [5] | normalized area under the dose-response curve [6] | normalized area under the dose-response curve [7] | normalized area under the dose-response curve [8] | normalized area under the dose-response curve [9] | normalized area under the dose-response curve [10] | normalized area under the dose-response curve [11] | normalized area under the dose-response curve [12] | normalized area under the dose-response curve [13] | normalized area under the dose-response curve [14] | normalized area under the dose-response curve [15] | normalized area under the dose-response curve [16] | normalized area under the dose-response curve [17] | normalized area under the dose-response curve [18] | normalized area under the dose-response curve [19] | normalized area under the dose-response curve [20] | normalized area under the dose-response curve [21] | normalized area under the dose-response curve [22] | normalized area under the dose-response curve [23] | normalized area under the dose-response curve [24] | normalized area under the dose-response curve [25] | normalized area under the dose-response curve [26] | normalized area under the dose-response curve [27] | normalized area under the dose-response curve [28] | normalized area under the dose-response curve [29] | normalized area under the dose-response curve [30] | normalized area under the dose-response curve [31] | normalized area under the dose-response curve [32] | normalized area under the dose-response curve [33] | normalized area under the dose-response curve [34] | normalized area under the dose-response curve [35] | normalized area under the dose-response curve [36] | normalized area under the dose-response curve [37] | normalized area under the dose-response curve [38] | normalized area under the dose-response curve [39] | normalized area under the dose-response curve [40]
CCCS(=O)(=O)Nc1ccc(F)c(C(=O)c2c[nH]c3ncc(-c4ccc(Cl)cc4)cc23)c1F [Vemurafenib] | 0.965 | 0.902 | 1 | 0.972 | 0.976 | 0.95 | 0.92 | 1.28 | 0.97 | 0.808 | 0.867 | 0.936 | 0.938 | 0.971 | 0.969 | 0.673 | 0.912 | 0.788 | 0.909 | 0.784 | 0.8 | 0.825 | 0.765 | 0.975 | 0.998 | 0.957 | 0.79 | 0.951 | 0.898 | 0.964 | 0.89 | 0.933 | 0.994 | 0.94 | 0.98 | 0.924 | 0.917 | 0.91 | 0.998 | 0.958
CC1(C)CCC(CN2CCN(c3ccc(C(=O)NS(=O)(=O)c4ccc(NCC5CCOCC5)c([N+](=O)[O-])c4)c(Oc4cnc5[nH]ccc5c4)c3)CC2)=C(c2ccc(Cl)cc2)C1 [Venetoclax] | 0.919 | 0.615 | 0.846 | 0.982 | 0.872 | 0.57 | 0.0483 | 0.119 | 0.48 | 0.64 | 0.696 | 0.371 | 0.514 | 0.686 | 0.829 | 0.196 | 0.247 | 0.101 | 0.591 | 0.354 | 0.366 | 0.617 | 0.525 | 0.481 | 0.0321 | 0.212 | 0.82 | 0.179 | 0.584 | 0.752 | 0.817 | 0.176 | 0.0382 | 0.14 | 0.952 | 0.73 | 0.876 | 0.09 | 0.251 | 0.0571
CS(=O)(=O)c1ccc(C(=O)Nc2ccc(Cl)c(-c3ccccn3)c2)c(Cl)c1 [Vismodegib] | 0.838 | 0.901 | 0.867 | 0.94 | 0.873 | 0.85 | 0.864 | 0.948 | 0.88 | 0.871 | 0.807 | 0.932 | 0.995 | 0.878 | 0.895 | 0.765 | 0.827 | 0.826 | 0.93 | 0.906 | 0.896 | 1.02 | 0.801 | 0.889 | 0.922 | 0.924 | 0.87 | 0.939 | 0.859 | 0.9 | 0.906 | 0.967 | 1.01 | 0.94 | 0.858 | 0.819 | 0.911 | 0.94 | 0.871 | 0.942
O=C(CCCCCCC(=O)Nc1ccccc1)NO [Vorinostat] | 0.551 | 0.607 | 0.692 | 0.528 | 0.672 | 0.46 | 0.672 | 0.56 | 0.55 | 0.482 | 0.519 | 0.767 | 0.855 | 0.421 | 0.426 | 0.331 | 0.443 | 0.4 | 0.627 | 0.649 | 0.738 | 0.521 | 0.554 | 0.721 | 0.427 | 0.717 | 0.35 | 0.469 | 0.635 | 0.43 | 0.637 | 0.432 | 0.781 | 0.51 | 0.533 | 0.598 | 0.449 | 0.63 | 0.542 | 0.517
Cc1cccc(/C=N/Nc2cc(N3CCOCC3)n3nc(-c4ccncc4)cc3n2)c1 [apy0201] | 0.688 | 0.769 | 0.511 | 0.897 | 0.885 | 0.65 | 0.77 | 0.822 | 0.69 | 0.415 | 0.682 | 0.504 | 0.756 | 0.681 | 0.648 | 0.673 | 0.634 | 0.447 | 0.508 | 0.311 | 0.564 | 0.578 | 0.269 | 0.706 | 0.794 | 0.93 | 0.43 | 0.863 | 0.516 | 0.57 | 0.81 | 0.655 | 0.826 | 0.65 | 0.601 | 0.831 | 0.709 | 0.41 | 0.736 | 0.867
Cc1sc2c(c1C)C(c1ccc(Cl)cc1)=N[C@@H](CC(=O)OC(C)(C)C)c1nnc(C)n1-2 [jq1] | 0.475 | 0.703 | 0.747 | 0.635 | 0.747 | 0.53 | 0.829 | 0.78 | 0.55 | 0.48 | 0.674 | 0.671 | 0.813 | 0.684 | 0.661 | 0.566 | 0.679 | 0.488 | 0.654 | 0.57 | 0.852 | 0.613 | 0.501 | 0.616 | 0.57 | 0.899 | 0.53 | 0.707 | 0.529 | 0.566 | 0.65 | 0.812 | 0.672 | 0.39 | 0.647 | 0.564 | 0.598 | 0.65 | 0.647 | 0.645
Cc1sc2c(c1C)C(c1ccc(Cl)cc1)=N[C@@H](CC(=O)Nc1ccc(O)cc1)c1nnc(C)n1-2 [otx-015] | 0.395 | 0.685 | 0.622 | 0.558 | 0.796 | 0.56 | 0.757 | 0.801 | 0.61 | 0.497 | 0.729 | 0.7 | 0.713 | 0.84 | 0.628 | 0.657 | 0.637 | 0.491 | 0.656 | 0.568 | 0.62 | 0.732 | 0.514 | 0.642 | 0.563 | 0.902 | 0.54 | 0.759 | 0.545 | 0.859 | 0.701 | 0.752 | 0.657 | 0.4 | 0.695 | 0.609 | 0.595 | 0.59 | 0.681 | 0.641
